{"source": "patent US7122193B1", "about": "(priority 1994, dated 2006)", "key": {"[1]": {"system": "MAb 11 × 7", "assay_type": "binding, mouse"}, "[2]": {"system": "MAb 4 × 11", "assay_type": "binding, mouse"}, "[3]": {"system": "MAb 11 × 2", "assay_type": "binding, mouse"}, "[4]": {"system": "MAb 11 × 7", "assay_type": "binding, mouse", "remark": "listed apart in the source"}, "[5]": {"system": "BALB/c mice", "details": "mouse, in vivo"}, "[6]": {"system": "IgG antibodies of sera of patients suffering from DLE and SS", "assay_type": "binding, human", "description": "FIG. 6: ELISA reactivity of serum samples originating from patients suffering from DLE and SS with the parent peptide and the analogue RIb 277–291 of Ro52. The sera of the patients are diluted to 1:1,000. Only the antibody activity of the sub-class IgG is measured. The median values of the optical density are indicated. The broken line represents the upper limit of the normal population corresponding to the mean value of the optical density of 20 normal human sera+2 SD (standard deviation) (0.30 OD units).\nSera of female F1 lupous mice (NZB/W) were obtained from S. Batsford (Freibourg, Germany). The human sera originate from patients suffering from disseminated lupus erythematosus (DLE) and Sjögren's syndrome (SS). They were obtained from D. A. Isenberg (London), O. Meyer (Paris) and G. Fournié (Toulouse). The sera of healthy volunteers were obtained from J. L. Pasquali (Strasbourg).\nThe sera of lupous mice were tested by ELISA as described previously (Benkirane, N., Friede, M., Guichard, G., briand, J. P., Van Regenmortel, M. H. V. and Muller, S. (1993) Antigenicity and immunogenicity of modified synthetic peptides containing D-amino acid residues. J. Biol. Chem., 268: 26279–26285). Only the antibodies of isotype IgG were tested. […] Clin. Exp. Immunol., 95: 397–407) except in the case of the peptide Ro52 277–291, where sensitization of the ELISA plates was carried out at 4° C. instead of 37° C. (see the reasons above). The threshold value for positivity of each test, including that of tests based on the use of retro-inverso peptide analogues, was determined using 20 sera of healthy individuals. The antigenic activity of the peptides is also measured by ELISA using a liquid phase inhibition test.\nThe 30 sera (positive or negative with respect to the L peptide) were tested in parallel with the RIa and RIb analogues. It was shown that all the sera positive with the L peptide were also positive with the retro-inverso peptides. […] The mean optical density corresponding to the arithmetic mean of all the optical density values, including the values below the threshold line of positivity, is 0.21 (standard deviation 0.25) and 0.51 (standard deviation 0.62) with the L and RIb peptides respectively."}, "[7]": {"system": "IgG antibodies of sera of patients suffering from DLE and SS", "assay_type": "binding, human", "remark": "listed apart in the source"}, "[8]": {"target": "MAb 4 × 11 (IgG1) anti-L peptide"}, "[9]": {"target": "MAb 11 × 2 (IgG3) anti-D peptide"}, "[10]": {"target": "MAb 4 × 8 (IgG1) anti-L peptide"}, "[11]": {"target": "MAb 4 × 10 (IgG1) anti-L peptide"}, "[12]": {"system": "trypsin"}, "[13]": {"test": "in vitro", "details": "pH 7.4"}}, "note": "Read-outs that look alike come from different tables or passages of the source. Peptide text beside a SMILES is read from it.", "data": [{"molecule": "CC[C@H](C)[C@H](NC(=O)CNC(=O)CNC(=O)[C@@H](N)CS)C(=O)N[C@@H](CCCNC(=N)N)C(=O)NCC(=O)N[C@@H](CCC(=O)O)C(=O)N[C@@H](CCCNC(=N)N)C(=O)N[C@@H](C)C(=O)O", "note": "[L peptide, [H Cys-Gly-Gly]-Ile-Arg-Gly-Glu-Arg-Ala-OH] (H-CGGIRGERA-OH)", "values": [{"measurement": "Molar excesses of inhibitor peptide required to inhibit 50% of the bonding between the MAb and D peptide", "setting": "[1]", "value": "—* (key: —: cross-reactivity not detectable (up to 250 μg/ml of competition peptide))"}, {"measurement": "ELISA (OD) reactivity with the peptides", "setting": "[2]", "value": 1.29, "unit": "OD"}, {"measurement": "ELISA (OD) reactivity with the peptides", "setting": "[3]", "value": 2.75, "unit": "OD"}, {"measurement": "ELISA (OD) reactivity with the peptides", "setting": "[4]", "value": 0.47, "unit": "OD"}, {"measurement": "antibody subclasses of the response", "setting": "[5]", "value": "the antibodies belong to the IgG1, 2a and 2b subclasses"}, {"measurement": "sera of patients tested in which anti-peptide 277–291 antibodies are detected", "setting": "[6]; 30 sera of DLE and SS patients", "value": 17, "unit": "%"}, {"measurement": "number of sera containing antibodies of the subclass IgG which react with the peptide", "setting": "[6]; among 30 sera of DLE and SS patients, threshold 0.30 OD units, plates sensitized at 4° C.", "value": 5}, {"measurement": "mean optical density", "setting": "[6]; arithmetic mean of all 30 sera, peptide 277–291 of Ro52", "value": 0.21}, {"measurement": "mean optical density", "setting": "[7]", "value": 0.21}, {"measurement": "number of sera which reacted", "setting": "[7]", "value": "Six"}, {"measurement": "percentage of sera which reacted", "setting": "[7]", "value": 30, "unit": "%"}, {"measurement": "BIAcore (Ka M^−1) affinity constant at equilibrium", "setting": "[8]", "value": "3e+06", "unit": "M⁻¹"}, {"measurement": "Ka (affinity constant at equilibrium)", "setting": "[8]", "value": "3e+06", "unit": "M⁻¹"}, {"measurement": "ka (association constant)", "setting": "[8]", "value": "3 ± 0.2"}, {"measurement": "kd (dissociation constant)", "setting": "[8]", "value": "100 ± 0.3"}, {"measurement": "BIAcore (Ka M^−1) affinity constant at equilibrium", "setting": "[9]", "value": "2e+06", "unit": "M⁻¹"}, {"measurement": "Ka (affinity constant at equilibrium)", "setting": "[9]", "value": "2e+06", "unit": "M⁻¹"}, {"measurement": "ka (association constant)", "setting": "[9]", "value": "2 ± 0.3"}, {"measurement": "kd (dissociation constant)", "setting": "[9]", "value": "100 ± 0.2"}, {"measurement": "Ka (affinity constant at equilibrium)", "setting": "[10]", "value": "8e+07", "unit": "M⁻¹"}, {"measurement": "ka (association constant)", "setting": "[10]", "value": "13 ± 0.2"}, {"measurement": "kd (dissociation constant)", "setting": "[10]", "value": "15 ± 0.2"}, {"measurement": "Ka (affinity constant at equilibrium)", "setting": "[11]", "value": "4,486 ×10^6 M^−1"}, {"measurement": "ka (association constant)", "setting": "[11]", "value": "987 ± 0.7"}, {"measurement": "kd (dissociation constant)", "setting": "[11]", "value": "22 ± 0.2"}, {"measurement": "bonding of MAb 11×2 to the L peptide in the presence of a non-digested peptide", "setting": "[12]", "value": 220, "unit": "RU"}, {"measurement": "time to complete loss of immunological activity on digestion with immobilized trypsin", "setting": "[12]; pH 7.4", "value": 10, "unit": "min"}, {"measurement": "half-life", "setting": "[13]", "value": 7, "unit": "min"}]}]}
